# Assay results taken from patent publication US20130302442A1, “METHODS OF USING (4S,4AS,5AR,12AS)-4-DIMETHYLAMINO-3,10,12,12A-TETRAHYDROXY-7-[(METHOXY(METHYL)AMINO)-METHYL]-1,11-DIOXO-1,4,4A,5,5A,6,11,12A-OCTAHYDRO-NAPHTHACENE-2-CARBOXYLIC ACID AMIDE” (priority 2012, published 2013).
# Like-named read-outs stand apart in the source and are kept apart here.
# Columns and labels:
# Bifidobacterium bifidum = experiment: In vitro MIC testing against anaerobic bacteria; type: cell-based; conditions: ATCC15696; Bifidobacterium bifidum 3965, ATCC 15696
# Bifidobacterium brevi = experiment: In vitro MIC testing against anaerobic bacteria; type: cell-based; conditions: ATCC15698; Bifidobacterium brevi 3967, ATCC 15698
# Bifidobacterium longum = experiment: In vitro MIC testing against anaerobic bacteria; type: cell-based; conditions: ATCC15707; Bifidobacterium longum 3968, ATCC 15707
# Clostridium perfringens = experiment: microbe, parasite or virus in culture; type: cell-based
# Clostridium difficile = experiment: In vitro MIC testing against anaerobic bacteria; type: cell-based
# Lactobacillus casei = experiment: In vitro MIC testing against anaerobic bacteria; type: cell-based; conditions: Lacticaseibacillus casei, ATCC393; Lactobacillus casei 1722, ATCC 393
# Lactobacillus plantarum = experiment: In vitro MIC testing against anaerobic bacteria; type: cell-based; conditions: Lactiplantibacillus plantarum, ATCC39268; Lactobacillus plantarum 2791, ATCC 39268
# Propionibacterium acnes = experiment: In vitro MIC testing against anaerobic bacteria; type: cell-based; conditions: Cutibacterium acnes, read-out: MIC
# [1] = system: Streptococcus intermedius; experiment: In vitro MIC testing against anaerobic bacteria; type: cell-based; conditions: ATCC27335; Streptococcus intermedius 1203, ATCC 27335
# Bacteroides fragilis = experiment: In vitro MIC testing against anaerobic bacteria; type: cell-based
# Bacteroides ovatus = experiment: In vitro MIC testing against anaerobic bacteria; type: cell-based
# [2] = system: Bacteroides thetaiotaomicron; experiment: In vitro MIC testing against anaerobic bacteria; type: cell-based
# Bacteroides vulgatus = experiment: In vitro MIC testing against anaerobic bacteria; type: cell-based
# Eikenella corrodens = experiment: In vitro MIC testing against anaerobic bacteria; type: cell-based; conditions: ATCC43278; Eikenella corrodens 1206, ATCC 43278; read-out: MIC
# [3] = system: Fusobacterium necrophorum; experiment: In vitro MIC testing against anaerobic bacteria; type: cell-based; conditions: ATCC25286; Fusobacterium necrophorum 3963, ATCC 25286; read-out: MIC
# Fusobacterium nucleatum = experiment: In vitro MIC testing against anaerobic bacteria; type: cell-based; conditions: ATCC25586; Fusobacterium nucleatum 3962, ATCC 25586; read-out: MIC
# [4] = system: Porphyromonas asaccharolytica; experiment: In vitro MIC testing against anaerobic bacteria; type: cell-based
# [5] = system: Prevotella melaninogenica; experiment: In vitro MIC testing against anaerobic bacteria; type: cell-based
# Prevotella spp. = experiment: In vitro MIC testing against anaerobic bacteria; type: cell-based
# Veillonella parvula = experiment: In vitro MIC testing against anaerobic bacteria; type: cell-based; conditions: ATCC17745; Veillonella parvula 1272, ATCC 17745
# P. granulosum = experiment: In vitro MIC testing, antibacterial spectrum of activity; type: cell-based; conditions: P. granulosum [clinical isolates] (3 isolates)
# P. avidum = experiment: as above; type: cell-based; conditions: P. avidum [clinical isolates] (4 isolates)
# S. epidermidis = experiment: as above; type: cell-based, Staphylococcus epidermidis; conditions: for MIC50 / MIC90: Staphylococcus epidermidis; for MIC50: read-out: MIC50; for MIC90: read-out: MIC90
# S. pneumoniae = experiment: as above; type: cell-based, Streptococcus pneumoniae
# S. pyogenes = experiment: as above; type: cell-based
# S. agalactiae = experiment: as above; type: cell-based
# S. haemolyticus = experiment: as above; type: cell-based; conditions: S. haemolyticus (33 isolates)
# [6] = system: Streptococcus spp. [Group C]; experiment: as above; type: cell-based; conditions: Streptococcus spp. [Group C] (30 isolates)
# E. faecalis = experiment: as above; type: cell-based
# E. coli = experiment: as above; type: cell-based; conditions: E. coli [tetS] (7 isolates)
# K. pneumoniae = experiment: as above; type: cell-based
# P. mirabilis = experiment: as above; type: cell-based; conditions: Proteus mirabilis; P. mirabilis (30 isolates)
# P. aeruginosa = experiment: as above; type: cell-based; conditions: Pseudomonas aeruginosa; P. aeruginosa (11 isolates)
# [7] = S. epidermidis [MRSE] (32 isolates)
# [8] = S. epidermidis [MSSE] (31 isolates)
# [9] = Klebsiella pneumoniae, K. pneumoniae (31 isolates)
smiles,measurement,setting,value
"C[C@H]1c2cccc(O)c2C(=O)C2=C(O)[C@]3(O)C(=O)C(C(N)=O)=C(O)[C@@H](N(C)C)[C@@H]3[C@@H](O)[C@@H]21 [Doxycycline, doxycycline]",MIC,Bifidobacterium bifidum,0.5 µg/mL
same,MIC,Bifidobacterium brevi,0.5 µg/mL
same,MIC,Bifidobacterium longum,1 µg/mL
same,MIC,Clostridium perfringens,16 µg/mL
same,MIC,Clostridium difficile; Clostridioides difficile,0.06 µg/mL
same,MIC,Clostridium difficile; Clostridium difficile 3584,0.06 µg/mL
same,MIC,Lactobacillus casei,2 µg/mL
same,MIC,Lactobacillus plantarum,2 µg/mL
same,MIC,"Propionibacterium acnes; ATCC11829, Propionibacterium acnes 1286, ATCC 11829",0.5 µg/mL
same,MIC,Propionibacterium acnes; Propionibacterium acnes 1713,0.12 µg/mL
same,MIC,[1],0.5 µg/mL
same,MIC,"Bacteroides fragilis; Bacteroides fragilis 3374, read-out: MIC",0.12 µg/mL
same,MIC,Bacteroides fragilis; Bacteroides fragilis 3479,16 µg/mL
same,MIC,"Bacteroides ovatus; Bacteroides ovatus 3503, read-out: MIC",8 µg/mL
same,MIC,"Bacteroides ovatus; Bacteroides ovatus 3508, read-out: MIC",0.12 µg/mL
same,MIC,[2]; Bacteroides thetaiotaomicron 3399,0.25 µg/mL
same,MIC,[2]; Bacteroides thetaiotaomicron 3496,16 µg/mL
same,MIC,Bacteroides vulgatus; Bacteroides vulgatus 3494,8 µg/mL
same,MIC,"Bacteroides vulgatus; Phocaeicola vulgatus, Bacteroides vulgatus 3389, read-out: MIC",8 µg/mL
same,MIC,Eikenella corrodens,0.12 µg/mL
same,MIC,[3],0.5 µg/mL
same,MIC,Fusobacterium nucleatum,0.5 µg/mL
same,MIC,"[4]; Porphyromonas asaccharolytica 3552, read-out: MIC",4 µg/mL
same,MIC,"[4]; Porphyromonas asaccharolytica 3557, read-out: MIC",2 µg/mL
same,MIC,[5],16 µg/mL
same,MIC,"[5]; Prevotella melaninogenica 3443, read-out: MIC",1 µg/mL
same,MIC,Prevotella spp.; Prevotella spp. 3564,1 µg/mL
same,MIC,Prevotella spp.; Prevotella spp. 3568,1 µg/mL
same,MIC,Veillonella parvula,1 µg/mL
same,MIC Range,P. granulosum,0.5 to 1 µg/mL
same,MIC Range,P. avidum,0.5 to 4 µg/mL
same,MIC Range,S. epidermidis; [7],0.12 to 8 µg/mL
same,MIC Range,S. epidermidis; [8],0.06 to 1 µg/mL
same,MIC50,S. epidermidis; [7],0.5 µg/mL
same,MIC90,S. epidermidis; [7],1 µg/mL
same,MIC50,S. epidermidis; [8],0.12 µg/mL
same,MIC90,S. epidermidis; [8],1 µg/mL
same,MIC Range,S. pneumoniae; S. pneumoniae [tetR] (5 isolates),4-4 μg/mL
same,MIC Range,S. pneumoniae; S. pneumoniae [tetS] (5 isolates),≦0.06-0.125 μg/mL
same,MIC50,"S. pneumoniae; Streptococcus pneumoniae, S. pneumoniae [PSSP] (32 isolates), read-out: MIC50",0.06 µg/mL
same,MIC90,"S. pneumoniae; Streptococcus pneumoniae, S. pneumoniae [PSSP] (32 isolates), read-out: MIC90",0.12 µg/mL
same,MIC,"S. pneumoniae; Streptococcus pneumoniae, S. pneumoniae strain PBS # 511, tetM",4 µg/mL
same,MIC Range,S. pyogenes; S. pyogenes (32 isolates),0.06 to 8 µg/mL
same,MIC Range,S. pyogenes; S. pyogenes [tetR] (5 isolates),4 to 8 µg/mL
same,MIC Range,S. pyogenes; S. pyogenes [tetS] (5 isolates),≦0.06-0.125 μg/mL
same,MIC,"S. pyogenes; Streptococcus pyogenes, S. pyogenes strain PBS # 330, tetO",8 µg/mL
same,MIC,"S. pyogenes; Streptococcus pyogenes, S. pyogenes strain PBS # 792, tetM",4 µg/mL
same,MIC50,"S. pyogenes; Streptococcus pyogenes, S. pyogenes (32 isolates), read-out: MIC50",0.12 µg/mL
same,MIC90,"S. pyogenes; Streptococcus pyogenes, S. pyogenes (32 isolates), read-out: MIC90",4 µg/mL
same,MIC Range,S. agalactiae; S. agalactiae (31 isolates),0.06 to 16 µg/mL
same,MIC Range,S. agalactiae; S. agalactiae [tetR] (7 isolates),8 to 16 µg/mL
same,MIC Range,S. agalactiae; S. agalactiae [tetS] (3 isolates),0.25-0.25 μg/mL
same,MIC,"S. agalactiae; Streptococcus agalactiae, S. agalactiae strain PBS # 316, tetO",8 µg/mL
same,MIC,"S. agalactiae; Streptococcus agalactiae, S. agalactiae strain PBS # 897, tetM",8 µg/mL
same,MIC50,"S. agalactiae; Streptococcus agalactiae, S. agalactiae (31 isolates), read-out: MIC50",8 µg/mL
same,MIC90,"S. agalactiae; Streptococcus agalactiae, S. agalactiae (31 isolates), read-out: MIC90",16 µg/mL
same,MIC Range,S. haemolyticus,0.06 to 16 µg/mL
same,MIC50,"S. haemolyticus; Staphylococcus haemolyticus, read-out: MIC50",0.5 µg/mL
same,MIC90,"S. haemolyticus; Staphylococcus haemolyticus, read-out: MIC90",16 µg/mL
same,MIC Range,[6],0.06 to 16 µg/mL
same,MIC50,[6]; read-out: MIC50,0.12 µg/mL
same,MIC90,[6]; read-out: MIC90,8 µg/mL
same,MIC Range,E. faecalis; E. faecalis [VSE] (31 isolates),0.12 to 16 µg/mL
same,MIC Range,E. faecalis; E. faecalis [tetR] (6 isolates),2 to 16 µg/mL
same,MIC Range,E. faecalis; E. faecalis [tetS] (4 isolates),≦0.06-0.125 μg/mL
same,MIC,"E. faecalis; Enterococcus faecalis, E. faecalis strain PBS # 274, tetL",16 µg/mL
same,MIC,"E. faecalis; Enterococcus faecalis, E. faecalis strain PBS # 276, tetM",8 µg/mL
same,MIC,"E. faecalis; Enterococcus faecalis, E. faecalis strain PBS # 949, tetS",2 µg/mL
same,MIC50,"E. faecalis; Enterococcus faecalis, E. faecalis [VSE] (31 isolates), read-out: MIC50",8 µg/mL
same,MIC90,"E. faecalis; Enterococcus faecalis, E. faecalis [VSE] (31 isolates), read-out: MIC90",8 µg/mL
same,MIC Range,E. coli,0.5 to 4 µg/mL
same,MIC Range,K. pneumoniae; K. pneumoniae [tetS] (7 isolates),0.5 to 8 µg/mL
same,MIC50,K. pneumoniae; [9],8 µg/mL
same,MIC90,K. pneumoniae; [9],> 32 µg/mL
same,MIC50,P. mirabilis,> 32 µg/mL
same,MIC90,P. mirabilis,> 32 µg/mL
same,MIC50,P. aeruginosa,> 32 µg/mL
same,MIC90,P. aeruginosa,> 32 µg/mL
